The term IC50 denotes the point on the concentration scale where inhibition reaches its midpoint.

Data set [1] has as its system LNCaP tumor-bearing CB-17 SCID mice. Kind of data set: Biodistribution in LNCaP tumor-bearing SCID mice, 1 h p.i., with or without PMPA.
Procedure: To establish tumor xenografts, LNCaP cells (10^7 cells/200 μL) were suspended in a 1:1 mixture (v/v) of Dulbecco modified Eagle medium/Nutrition Mixture F-12 with Glutamax-I (1:1) and Matrigel (BD Biosciences, Germany), and inoculated subcutaneously onto the right shoulder of 6-8 weeks old CB17-SCID mice (Charles River, Sulzfeld, Germany). Mice were used for when tumors had grown to a diameter of 5-8 mm (3-4 weeks after inoculation).
Approximately 1-2 MBq (<0.2 nmol) of the ^18F-labeled PSMA inhibitor was injected into the tail vein of LNCaP tumor-bearing male CB-17 SCID mice and sacrificed after 1 h post injection (n=4-5). Selected organs were removed, weighted and measured in a γ-counter
Data set [2] can be described thus: Metabolic stability and 18F/19F isotopic exchange in mouse urine (radio-HPLC, radio-TLC). It counts as in vitro ADME, mice. On the procedure:
Analytical reversed-phase high pressure chromatography (RP-HPLC) were performed using Shimadzu gradient systems (Shimadzu Deutschland GmbH, Neufahrn, Germany), equipped with a SPD-20A UV/Vis detector (220 nm, 254 nm). […] Eluents for all HPLC operations were water (solvent A) and acetonitrile (solvent B), both containing 0.1% trifluoroacetic acid. […] The gradient for all HPLC operations was: 5% B isocratic 0-3 min, 25-35% B 3-43 min, 95-95% B 43-48 min.
For radio-thin-layer chromatography, aluminum sheets coated with silica gel 60 RP-18 F254s were used with a mobile phase consisting of a 3:2 mixture (v/v) of MeCN in H2O supplemented with 10% of 2 M aqueous NaOAc and 1% of TFA. Analysis was performed using either a Scan-RAM radio-TLC detector (LabLogic Systems Ltd., Sheffield, United Kingdom) or a CR 35 BIO phosphorimager (Duerr Medical GmbH, Bietigheim-Bissingen, Germany).
For in vivo μmetabolism studies, 8-12 MBq (<0.6 nmol) of the respective ^18F-labeled ligand (rhPSMA-7.1-7.4) was injected into the tail vein of female healthy CB17-SCID mice (n=4). Mice were left under anesthesia for 30 min and the urine was collected using a bladder catheter. Urine samples were pooled and centrifuged for 5 min at 9000 rpm to remove suspended solids. The supernatant was directly used for radio-HPLC analysis with the above mentioned conditions. […]

Data set [3] is described as follows: Octanol-water partition coefficient (n-octanol/PBS pH 7.4). It counts as physicochemical. As for the experimental part:
Approximately 1 MBq of the labeled tracer was dissolved in 1 mL of a 1:1 mixture (by volumes) of phosphate buffered saline (PBS, pH 7.4) and n-octanol in an Eppendorf tube. After vigorous mixing of the suspension for 3 minutes at room temperature, the vial was centrifuged at 15000 g for 3 minutes (Biofuge 15, Heraus Sepatech, Osterode, Germany) and 100 μL aliquots of both layers were measured in a gamma counter. The experiment was repeated at least six times.
Determianation of the logP values was carried out in phosphate buffered saline (PBS, pH 7.4) and n-octanol (=logPoct/PBS).

Data set [4] deals with T1, PSMA (Homo sapiens, UniProt Q04609).
T1 construct: endogenous in cells; host or cells: LNCaP cells
T1 sequence (Q04609 whole entry): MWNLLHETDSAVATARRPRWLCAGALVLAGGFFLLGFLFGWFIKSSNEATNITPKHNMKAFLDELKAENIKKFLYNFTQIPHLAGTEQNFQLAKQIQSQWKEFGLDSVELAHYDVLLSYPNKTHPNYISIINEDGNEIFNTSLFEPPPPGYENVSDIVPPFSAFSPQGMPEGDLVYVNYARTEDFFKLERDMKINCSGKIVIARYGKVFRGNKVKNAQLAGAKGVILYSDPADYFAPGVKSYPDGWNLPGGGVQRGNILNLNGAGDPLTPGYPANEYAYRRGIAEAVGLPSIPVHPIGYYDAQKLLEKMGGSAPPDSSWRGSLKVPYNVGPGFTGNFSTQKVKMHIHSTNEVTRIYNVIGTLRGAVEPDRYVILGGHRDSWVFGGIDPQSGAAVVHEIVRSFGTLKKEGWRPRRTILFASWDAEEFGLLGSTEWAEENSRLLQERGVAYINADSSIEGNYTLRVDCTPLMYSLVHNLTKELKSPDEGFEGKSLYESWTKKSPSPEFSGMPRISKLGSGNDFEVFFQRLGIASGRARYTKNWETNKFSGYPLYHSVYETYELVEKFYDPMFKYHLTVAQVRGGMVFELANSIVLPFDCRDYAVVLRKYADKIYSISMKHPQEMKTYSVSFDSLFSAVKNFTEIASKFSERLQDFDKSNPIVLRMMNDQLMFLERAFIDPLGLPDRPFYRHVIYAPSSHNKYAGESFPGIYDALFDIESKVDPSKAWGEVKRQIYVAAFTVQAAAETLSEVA
The data set is described as follows: Determination of IC50: PSMA affinity, competition with ([125I]I-BA)KuE on LNCaP cells. Conditions: LNCaP cells, [125I]IB-KuE 0.2 nM, 1 h, 4 °C. It counts as binding. On the procedure: After removal of the culture medium, the cells were treated once with 500 μL of HBSS (Hank's balanced salt solution, Biochrom, Berlin, Germany, with addition of 1% bovine serum albumin (BSA)) and left 15 min on ice for equilibration in 200 μL HBSS (1% BSA). […] Quantification of bound and free radioligand was accomplished in a γ-counter.

Values joined by “and” are separate entries in the source; they are usually repeats but may differ in a detail not shown here. Identical values can stand only once. Like-named read-outs stand apart in the source and are kept apart here.

For “[^19F][^natGa]D/L-Dap-R/S-DOTAGA-rhPSMA7 [rhPSMA7-rac]”, in data set [1], the Biodistribution adrenals came out at 3.0 ± 0.45 % ID/g, the Biodistribution blood is 1.1 ± 0.03 % ID/g, the Biodistribution bone is listed as 0.91 ± 0.11 % ID/g and the Biodistribution heart turned out to be 0.69 ± 0.07 % ID/g. In addition, in data set [1], the Biodistribution intestine stood at 0.60 ± 0.27 % ID/g, the Biodistribution kidneys turned out to be 71.3 ± 13.3 % ID/g, the Biodistribution liver was 0.67 ± 0.07 % ID/g and the Biodistribution lung came out at 1.4 ± 0.17 % ID/g. Also, in data set [1], the Biodistribution muscle turned out to be 0.36 ± 0.06 % ID/g, the Biodistribution pancreas was 0.60 ± 0.10 % ID/g, the Biodistribution spleen came out at 11.1 ± 2.3 % ID/g and the Biodistribution stomach amounted to 0.49 ± 0.07 % ID/g. Moreover, the Biodistribution tumor in data set [1] worked out at 10.4 ± 0.67 % ID/g.

Turning to `CC(C)(C)[Si](F)(c1ccc(C(=O)NC[C@@H](NC(=O)CC[C@@H](C(=O)O)N2CCN(CC(=O)O)CCN(CC(=O)O)CCN(CC(=O)O)CC2)C(=O)N[C@H](CCCCNC(=O)CCC(=O)NCCC[C@@H](NC(=O)CC[C@H](NC(=O)N[C@@H](CCC(=O)O)C(=O)O)C(=O)O)C(=O)O)C(=O)O)cc1)C(C)(C)C` [rhPSMA7.3, [^19F][^natGa]D-Dap-S-DOTAGA-rhPSMA7, metal not drawn], the “[F-18]rhPSMA7.3 share of radioactivity in urine” value in data set [2] (after addition of 5 nmol [F-19]rhPSMA7-3, room temperature) worked out at 85.8%; in data set [2] (radioactive urine before addition of cold [F-19]rhPSMA7.3), 79.4%. Besides, the logP in data set [3] (n-octanol/PBS, pH 7.4, octanol/PBS7.4, mean of individual measurements, read-out: log P Mean) was -3.26. Further, the “individual log P measurements” value in data set [3] (octanol/PBS7.4, single measurements) is −3.02 and −3.06 and −3.07 and −2.86 and −3.39 and −3.33 and −3.34 and −3.20 and −3.40 and −3.41 and −3.48 and −3.49 and −3.32 and −3.45 and −3.53 and −3.43 and −3.56 and −3.03 and −3.08. For the same compound, the IC50 in data set [4] (HBSS+1% BSA, single measurements, read-out: individual IC50 measurements) is 3.17 nM and 2.91 nM and 5.35 nM and 5.74 nM and 4.59 nM and 4.45 nM; in data set [4] (mean of the individual measurements, read-out: IC50 Mean), 4.37 nM.

The values above are taken from patent US12377176B2, “Cancer diagnostic imaging agents” (Technische Universität München, priority 2019, dated 2025).
